# Experimental data from US20130123222A1, “Synergistic Anti-Cancer Activity of SR16388 with Anti-Mitotic Drugs” (SRI INTERNATIONAL, INC., priority 2011, published 2013).
# Tests used:
# [1] = tested on: panel of 48 to 60 cell lines; test: 5×4 combination screen with SR16388, CellTiter-Glo viability; synergy by pattern recognition
# Experimental: Cells were treated with compounds alone or in combination for three days and CellTiter-Glo® Luminescent Cell Viability Assay (Promega Corp.) was used as the endpoint to measure cell viability.
# Cells were cultured in DMEM with 10% fetal bovine serum and used between passage 2 and passage 20. Cells were harvested on Day-1 (FIG. 1A) and re-supspended to the corresponding seeding density and seeded with Wellmate (ThermoFisher) to 384 plates (BD or GBO).
# 40 mM Compound stocks in 100% DMSO were made. Master plates were made with Janus (PerkinElmer), then further diluted and added to the cell plates with Matrix Platemate (Thermo) on Day 0.
# CellTiter-Glo® Luminescent Cell Viability Assay (Promega Corp.) was used to measure ATP as an indicator of viable cells on Day 3 using Envision (PerkinElmer) and back up reader Analyst HT (MDS) and Gen5 (BioTek).
# Single point, 5×4 checkque board platemap was used in the initial screening.
# Relative Luminescent Units (RLU) were plotted against corresponding drug concentrations and fitted with standard four parameter sigmoidal curve with custom coded R program or Calcusyn (Biosoft, Cambridge, UK).
# cancer cell lines = test: Combination cell viability assay, general observations on ratios and confirmed synergy; type: cell-based; details: in combination with SR16388
# A549 = test: 11×7 synergism hit rate; type: cell-based; details: NSCLC A549, combination with SR16388
# From the text: (§1) SR16388 was synthesized in house.
# MCF7 = test: 11×7 synergism hit rate; type: cell-based; details: Breast Cancer MCF7, combination with SR16388
# From the text: as §1
# (§2) Within the same type of cancer cells, some cell lines have more synergistic hits than others. Melanoma and breast cancer cell lines had the highest hit rate.
# RPMI8226 = test: 11×7 synergism hit rate; type: cell-based; details: Leukemia RPMI8226, combination with SR16388
# From the text: as §1, §2
# MALME = test: 11×7 synergism hit rate; type: cell-based; details: Melanoma MALME, combination with SR16388
# From the text: as §1, §2
# CCRFCEM = test: 11×7 synergism hit rate; type: cell-based; details: Leukemia CCRFCEM, combination with SR16388
# From the text: as §1, §2
# OVCAR3 = test: 11×7 synergism hit rate; type: cell-based; details: Ovarian Cancer OVCAR3, combination with SR16388
# From the text: as §1, §2
# HOP62 = test: 11×7 synergism hit rate; type: cell-based; details: NSCLC HOP62, combination with SR16388
# From the text: as §1, §2
# HOP92 = test: 11×7 synergism hit rate; type: cell-based; details: NSCLC HOP92, combination with SR16388
# From the text: as §1, §2
# MOLT4 = test: 11×7 synergism hit rate; type: cell-based; details: Leukemia MOLT4, combination with SR16388
# From the text: as §1, §2
# SR = test: 11×7 synergism hit rate; type: cell-based; details: Leukemia SR, combination with SR16388
# From the text: as §1, §2
# CAKI1 = test: 11×7 synergism hit rate; type: cell-based; details: Renal Cancer CAKI1, combination with SR16388
# From the text: as §1, §2
# NCIH322M = test: 11×7 synergism hit rate; type: cell-based; details: NSCLC NCIH322M, combination with SR16388
# From the text: as §1, §2
# SNB75 = test: 11×7 synergism hit rate; type: cell-based; details: CNS Cancer SNB75, combination with SR16388
# From the text: as §1, §2
# 7860 = test: 11×7 synergism hit rate; type: cell-based; details: Renal Cancer 7860, combination with SR16388
# From the text: as §1, §2
# SKMEL28 = test: 11×7 synergism hit rate; type: cell-based; details: Melanoma SKMEL28, combination with SR16388
# From the text: as §1, §2
# MDAMB468 = test: 11×7 synergism hit rate; type: cell-based; details: Breast Cancer MDAMB468, combination with SR16388
# From the text: as §1, §2
# SF539 = test: 11×7 synergism hit rate; type: cell-based; details: CNS Cancer SF539, combination with SR16388
# From the text: as §1, §2
# SKOV3 = test: 11×7 synergism hit rate; type: cell-based; details: Ovarian Cancer SKOV3, combination with SR16388
# From the text: as §1, §2
# SF295 = test: 11×7 synergism hit rate; type: cell-based; details: CNS Cancer SF295, combination with SR16388
# From the text: as §1, §2
# HCT116 = test: 11×7 synergism hit rate; type: cell-based; details: Colon Cancer HCT116, combination with SR16388
# From the text: as §1, §2
# SKMEL5 = test: 11×7 synergism hit rate; type: cell-based; details: Melanoma SKMEL5, combination with SR16388
# From the text: as §1, §2
# EKVX = test: 11×7 synergism hit rate; type: cell-based; details: NSCLC EKVX, combination with SR16388
# From the text: as §1, §2
# DU145 = test: 11×7 synergism hit rate; type: cell-based; details: Prostate Cancer DU145, combination with SR16388
# From the text: as §1, §2
# HT29 = test: 11×7 synergism hit rate; type: cell-based; details: Colon Cancer HT29, combination with SR16388
# From the text: as §1, §2
# OVCAR8 = test: 11×7 synergism hit rate; type: cell-based; details: Ovarian Cancer OVCAR8, combination with SR16388
# From the text: as §1, §2
# SN12C = test: 11×7 synergism hit rate; type: cell-based; details: Renal Cancer SN12C, combination with SR16388
# From the text: as §1, §2
# ACHN = test: 11×7 synergism hit rate; type: cell-based; details: Renal Cancer ACHN, combination with SR16388
# From the text: as §1, §2
# MDAMB435 = test: 11×7 synergism hit rate; type: cell-based; details: Melanoma MDAMB435, combination with SR16388
# From the text: as §1, §2
# HCT15 = test: 11×7 synergism hit rate; type: cell-based; details: Colon Cancer HCT15, combination with SR16388
# From the text: as §1, §2
# UACC257 = test: 11×7 synergism hit rate; type: cell-based; details: Melanoma UACC257, combination with SR16388
# From the text: as §1, §2
# SW620 = test: 11×7 synergism hit rate; type: cell-based; details: Colon Cancer SW620, combination with SR16388
# From the text: as §1, §2
# SF268 = test: 11×7 synergism hit rate; type: cell-based; details: CNS Cancer SF268, combination with SR16388
# From the text: as §1, §2
# NCIH23 = test: 11×7 synergism hit rate; type: cell-based; details: NSCLC NCIH23, combination with SR16388
# From the text: as §1, §2
# U031 = test: 11×7 synergism hit rate; type: cell-based; details: Renal Cancer U031, combination with SR16388
# From the text: as §1, §2
# U251 = test: 11×7 synergism hit rate; type: cell-based; details: CNS Cancer U251, combination with SR16388
# From the text: as §1, §2
# [2] = tested on: various cancer cell lines; test: 11×7 synergism hit rate over all cell lines (by algorism); type: cell-based
# From the text: as §1, §2
# [3] = in combination with SR16388, 5x4-T1, pattern recognition, of 60 cell lines incl. no data
smiles,measurement,setting,value
CC(=O)O[C@@]12CO[C@@H]1C[C@H](O)[C@@]1(C)C(=O)[C@H](O)C3=C(C)[C@@H](OC(=O)[C@H](O)[C@@H](NC(=O)OC(C)(C)C)c4ccccc4)C[C@@](O)([C@@H](OC(=O)c4ccccc4)[C@H]21)C3(C)C [Docetaxel],interaction with SR16388 in the screen of 30 cancer therapeutic agents,[1],Synergistic anti-proliferation
same,no effect (number of cell lines),[1]; [3],51
same,synergy (number of cell lines),[1]; [3],7
same,% synergy,"[1]; in combination with SR16388, 5x4-T1, share of cell lines with data",12%
same,interaction with SR16388 (confirmed),cancer cell lines,synergistic anti-proliferation effect
same,% Hit rate,A549,4%
same,% Hit rate,MCF7,19%
same,% Hit rate,RPMI8226,1%
same,% Hit rate,MALME,6%
same,% Hit rate,CCRFCEM,12%
same,% Hit rate,OVCAR3,8%
same,% Hit rate,HOP62,1%
same,% Hit rate,HOP92,4%
same,% Hit rate,MOLT4,13%
same,% Hit rate,SR,0%
same,% Hit rate,CAKI1,16%
same,% Hit rate,NCIH322M,14%
same,% Hit rate,SNB75,5%
same,% Hit rate,7860,10%
same,% Hit rate,SKMEL28,31%
same,% Hit rate,MDAMB468,6%
same,% Hit rate,SF539,13%
same,% Hit rate,SKOV3,12%
same,% Hit rate,SF295,8%
same,% Hit rate,HCT116,18%
same,% Hit rate,SKMEL5,10%
same,% Hit rate,EKVX,0%
same,% Hit rate,DU145,1%
same,% Hit rate,HT29,21%
same,% Hit rate,OVCAR8,6%
same,% Hit rate,SN12C,8%
same,% Hit rate,ACHN,4%
same,% Hit rate,MDAMB435,14%
same,% Hit rate,HCT15,12%
same,% Hit rate,UACC257,18%
same,% Hit rate,SW620,8%
same,% Hit rate,SF268,18%
same,% Hit rate,NCIH23,5%
same,% Hit rate,U031,4%
same,% Hit rate,U251,12%
same,% Hit rate,"[2]; combination with SR16388, identified by algorism, all cell lines",10.69%
same,interaction with SR16388 in 11×7 experiments,[2]; in combination with SR16388,synergistic effect
